By EC50 is commonly meant the concentration that produces a half-maximal response. In general, Emax refers to the size of the effect at its maximum, as opposed to the concentration needed.

For experiment [1], the target named is T1, CRF2R (Homo sapiens, UniProt Q13324).
T1 sequence (Q13324 1-411): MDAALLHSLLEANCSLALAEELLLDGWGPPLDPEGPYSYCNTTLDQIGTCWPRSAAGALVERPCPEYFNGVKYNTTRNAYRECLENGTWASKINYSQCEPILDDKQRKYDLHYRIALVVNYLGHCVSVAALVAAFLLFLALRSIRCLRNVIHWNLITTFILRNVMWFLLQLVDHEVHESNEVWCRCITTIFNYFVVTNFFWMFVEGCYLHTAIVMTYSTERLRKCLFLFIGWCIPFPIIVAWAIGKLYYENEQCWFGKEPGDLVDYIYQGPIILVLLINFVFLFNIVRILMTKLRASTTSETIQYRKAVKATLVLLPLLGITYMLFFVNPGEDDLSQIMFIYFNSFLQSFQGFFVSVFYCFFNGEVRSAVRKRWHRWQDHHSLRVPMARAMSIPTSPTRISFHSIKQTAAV
Nature of the experiment: CRF2R agonist activation (EC50 / Emax), called comparative CRF binding. In kind it is cell-based. To be noted: for EC50: read-out: CRF2R EC50; for Emax: read-out: CRF2R Emax. The gist of the method:
(§1)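 Read-out is Gαs-driven cAMP induction, quantified directly in lysates or through CRE-reporter gene expression, after treating CRF1R- or CRF2R-expressing cells with peptide. Vehicle-treated cells serve as the comparison.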

Experiment [2] addresses T2, CRF1R (Homo sapiens, UniProt P34998).
T2 sequence (P34998 24-415): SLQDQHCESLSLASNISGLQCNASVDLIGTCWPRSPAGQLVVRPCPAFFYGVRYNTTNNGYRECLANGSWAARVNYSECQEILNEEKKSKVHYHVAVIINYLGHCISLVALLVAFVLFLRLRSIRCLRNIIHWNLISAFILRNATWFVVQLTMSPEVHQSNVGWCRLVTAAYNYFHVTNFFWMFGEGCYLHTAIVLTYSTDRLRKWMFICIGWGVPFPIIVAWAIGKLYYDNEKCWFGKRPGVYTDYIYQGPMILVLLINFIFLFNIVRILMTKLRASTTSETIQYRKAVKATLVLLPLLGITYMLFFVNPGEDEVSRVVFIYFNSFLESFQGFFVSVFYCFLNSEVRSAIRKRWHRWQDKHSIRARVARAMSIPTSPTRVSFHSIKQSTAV
Nature of the experiment: CRF1R agonist activation (EC50 / Emax), called comparative CRF binding. The class given is cell-based. Particulars: for EC50: read-out: CRF1R EC50; for Emax: read-out: CRF1R Emax. The gist of the method:
as §1

Peptide text beside a SMILES is read from it. A value given as a limit tells only on which side of the number the result lay.

Take `CC[C@H](C)[C@H](N)C(=O)N[C@H](C(=O)N[C@@H](CC(C)C)C(=O)N[C@@H](CO)C(=O)N[C@@H](CC(C)C)C(=O)N[C@@H](CC(=O)O)C(=O)N[C@H](C(=O)N1CCC[C@H]1C(=O)N[C@H](C(=O)NCC(=O)N[C@@H](CC(C)C)C(=O)N[C@@H](CC(C)C)C(=O)N[C@@H](CCC(N)=O)C(=O)N[C@H](C(=O)N[C@@H](CC(C)C)C(=O)N[C@@H](CC(C)C)C(=O)N[C@@H](CCC(=O)O)C(=O)N[C@@H](CCC(N)=O)C(=O)N[C@@H](CCCNC(=N)N)C(=O)N[C@@H](C)C(=O)N[C@@H](C)C(=O)N[C@@H](CCCNC(=N)N)C(=O)N[C@@H](CCC(=O)O)C(=O)N[C@@H](CCC(N)=O)C(=O)N[C@@H](C)C(=O)N[C@H](C(=O)N[C@H](C(=O)N[C@@H](CC(N)=O)C(=O)N[C@@H](C)C(=O)N[C@@H](CCCNC(=N)N)C(=O)N[C@H](C(=O)N[C@@H](CC(C)C)C(=O)N[C@@H](C)C(=O)N[C@@H](CCCNC(=N)N)C(=O)N[C@H](C(N)=O)C(C)C)[C@@H](C)CC)[C@@H](C)O)[C@@H](C)O)[C@@H](C)CC)[C@@H](C)CC)C(C)C)C(C)C` [compound 136] (H-IVLSLDVPIGLLQILLEQRAAREQATTNARILARV-NH2; N-terminus assumed): the EC50 in experiment [1] is 23.4 nM; in experiment [2], more than 100 nM. In addition, the Emax in experiment [1] came out at 68%; in experiment [2] it was 8%.
In the case of `CC[C@H](C)[C@H](N)C(=O)N[C@H](C(=O)N[C@@H](CC(C)C)C(=O)N[C@@H](CO)C(=O)N[C@@H](CC(C)C)C(=O)N[C@@H](CC(=O)O)C(=O)N[C@H](C(=O)N1CCC[C@H]1C(=O)N[C@H](C(=O)NCC(=O)N[C@@H](CC(C)C)C(=O)N[C@@H](CC(C)C)C(=O)N[C@@H](CCC(N)=O)C(=O)N[C@H](C(=O)N[C@@H](CC(C)C)C(=O)N[C@@H](CC(C)C)C(=O)N[C@@H](CCC(=O)O)C(=O)N[C@@H](CCC(N)=O)C(=O)N[C@@H](CCCNC(=N)N)C(=O)N[C@@H](C)C(=O)N[C@@H](CCCNC(=N)N)C(=O)N[C@@H](C)C(=O)N[C@@H](C)C(=O)N[C@@H](CCCNC(=N)N)C(=O)N[C@@H](CCC(=O)O)C(=O)N[C@@H](CCC(N)=O)C(=O)N[C@@H](C)C(=O)N[C@H](C(=O)N[C@H](C(=O)N[C@@H](CC(N)=O)C(=O)N[C@@H](C)C(=O)N[C@@H](CCCNC(=N)N)C(=O)N[C@H](C(=O)N[C@@H](CC(C)C)C(=O)N[C@@H](C)C(=O)N[C@@H](CCCNC(=N)N)C(=O)N[C@H](C(N)=O)C(C)C)[C@@H](C)CC)[C@@H](C)O)[C@@H](C)O)[C@@H](C)CC)[C@@H](C)CC)C(C)C)C(C)C` [compound 137] (H-IVLSLDVPIGLLQILLEQRARAAREQATTNARILARV-NH2; N-terminus assumed), the Emax in experiment [1] amounted to 100%; in experiment [2] it was 4%.
On to `CC[C@H](C)[C@H](N)C(=O)N[C@H](C(=O)N[C@@H](CC(C)C)C(=O)N[C@@H](CO)C(=O)N[C@@H](CC(C)C)C(=O)N[C@@H](CC(=O)O)C(=O)N[C@H](C(=O)N1CCC[C@H]1C(=O)N[C@H](C(=O)NCC(=O)N[C@@H](CC(C)C)C(=O)N[C@@H](CC(C)C)C(=O)N[C@@H](CCC(N)=O)C(=O)N[C@H](C(=O)N[C@@H](CC(C)C)C(=O)N[C@@H](CC(C)C)C(=O)N[C@@H](CCC(=O)O)C(=O)N[C@@H](CCC(N)=O)C(=O)N[C@@H](C)C(=O)N[C@@H](C)C(=O)N[C@@H](CCCNC(=N)N)C(=O)N[C@@H](CCC(=O)O)C(=O)N[C@@H](CCC(N)=O)C(=O)N[C@@H](C)C(=O)N[C@H](C(=O)N[C@H](C(=O)N[C@@H](CC(N)=O)C(=O)N[C@@H](C)C(=O)N[C@@H](CCCNC(=N)N)C(=O)N[C@H](C(=O)N[C@@H](CC(C)C)C(=O)N[C@@H](C)C(=O)N[C@@H](CCCNC(=N)N)C(=O)N[C@H](C(N)=O)C(C)C)[C@@H](C)CC)[C@@H](C)O)[C@@H](C)O)[C@@H](C)CC)[C@@H](C)CC)C(C)C)C(C)C` [compound 138] (H-IVLSLDVPIGLLQILLEQAAREQATTNARILARV-NH2; N-terminus assumed), for which, in experiment [1], the EC50 is 59 nM and the Emax is 46%. Moreover, in experiment [2], the EC50 is more than 100 nM and the Emax came out at 5%.
Consider `CC[C@H](C)[C@H](N)C(=O)N[C@H](C(=O)N[C@@H](CC(C)C)C(=O)N[C@@H](CO)C(=O)N[C@@H](CC(C)C)C(=O)N[C@@H](CC(=O)O)C(=O)N[C@H](C(=O)N1CCC[C@H]1C(=O)N[C@H](C(=O)NCC(=O)N[C@@H](CC(C)C)C(=O)N[C@@H](CC(C)C)C(=O)N[C@@H](CCC(N)=O)C(=O)N[C@H](C(=O)N[C@@H](CC(C)C)C(=O)N[C@@H](CC(C)C)C(=O)N[C@@H](CCC(=O)O)C(=O)N[C@@H](CCC(N)=O)C(=O)N[C@@H](C)C(=O)N[C@@H](C)C(=O)N[C@@H](C)C(=O)N[C@@H](CCCNC(=N)N)C(=O)N[C@@H](CCC(=O)O)C(=O)N[C@@H](CCC(N)=O)C(=O)N[C@@H](C)C(=O)N[C@H](C(=O)N[C@H](C(=O)N[C@@H](CC(N)=O)C(=O)N[C@@H](C)C(=O)N[C@@H](CCCNC(=N)N)C(=O)N[C@H](C(=O)N[C@@H](CC(C)C)C(=O)N[C@@H](C)C(=O)N[C@@H](CCCNC(=N)N)C(=O)N[C@H](C(N)=O)C(C)C)[C@@H](C)CC)[C@@H](C)O)[C@@H](C)O)[C@@H](C)CC)[C@@H](C)CC)C(C)C)C(C)C` [compound 139] (H-IVLSLDVPIGLLQILLEQAAAREQATTNARILARV-NH2; N-terminus assumed), for which the EC50 in experiment [1] is 42.6 nM; in experiment [2] it was more than 100 nM. Besides, the Emax in experiment [1] was 60%; in experiment [2] it was 4%.
Consider `CC[C@H](C)[C@H](N)C(=O)N[C@H](C(=O)N[C@@H](CC(C)C)C(=O)N[C@@H](CO)C(=O)N[C@@H](CC(C)C)C(=O)N[C@@H](CC(=O)O)C(=O)N[C@H](C(=O)N1CCC[C@H]1C(=O)N[C@H](C(=O)NCC(=O)N[C@@H](CC(C)C)C(=O)N[C@@H](CC(C)C)C(=O)N[C@@H](CCC(N)=O)C(=O)N[C@H](C(=O)N[C@@H](CC(C)C)C(=O)N[C@@H](CC(C)C)C(=O)N[C@@H](CCC(=O)O)C(=O)N[C@@H](CCC(N)=O)C(=O)N[C@@H](C)C(=O)N[C@@H](CCCNC(=N)N)C(=O)N[C@@H](C)C(=O)N[C@@H](C)C(=O)N[C@@H](C)C(=O)N[C@@H](CCCNC(=N)N)C(=O)N[C@@H](CCC(=O)O)C(=O)N[C@@H](CCC(N)=O)C(=O)N[C@@H](C)C(=O)N[C@H](C(=O)N[C@H](C(=O)N[C@@H](CC(N)=O)C(=O)N[C@@H](C)C(=O)N[C@@H](CCCNC(=N)N)C(=O)N[C@H](C(=O)N[C@@H](CC(C)C)C(=O)N[C@@H](C)C(=O)N[C@@H](CCCNC(=N)N)C(=O)N[C@H](C(N)=O)C(C)C)[C@@H](C)CC)[C@@H](C)O)[C@@H](C)O)[C@@H](C)CC)[C@@H](C)CC)C(C)C)C(C)C` [compound 141] (H-IVLSLDVPIGLLQILLEQARAAAREQATTNARILARV-NH2), for which the Emax in experiment [1] was 29%; in experiment [2], 7%.

(Values after patent US6936585B2, “Corticotropin releasing factor 2 receptor agonists” (priority 2002, dated 2005).)
